Reference: ChEMBL document CHEMBL1126699, “Structure-activity relationships in 1,4-benzodioxan-related compounds. 4. Effect of aryl and alkyl substituents at position 3 on alpha-adrenoreceptor blocking activity” (J Med Chem, 1993)

What was measured:
[1] = target: Adrenergic receptor alpha (Rattus norvegicus) (UniProt P15823+P23944+P43140+P22086+P19328+P22909); assay: Selectivity ratio is the antilog of the difference between pA2 values at alpha1- and alpha2- adrenoceptors
[2] = target: T1, Adrenergic receptor alpha-2 (Rattus norvegicus, UniProt P22086+P19328+P22909); assay: Tested for the alpha-2-adrenoceptor blocking activity by antagonism of clonidine-induced depression of the twitch responses of the field-stimulated prostatic portion of isolated rat vas deferens; format: functional, tissue-based
T1 sequence (P22086 whole entry): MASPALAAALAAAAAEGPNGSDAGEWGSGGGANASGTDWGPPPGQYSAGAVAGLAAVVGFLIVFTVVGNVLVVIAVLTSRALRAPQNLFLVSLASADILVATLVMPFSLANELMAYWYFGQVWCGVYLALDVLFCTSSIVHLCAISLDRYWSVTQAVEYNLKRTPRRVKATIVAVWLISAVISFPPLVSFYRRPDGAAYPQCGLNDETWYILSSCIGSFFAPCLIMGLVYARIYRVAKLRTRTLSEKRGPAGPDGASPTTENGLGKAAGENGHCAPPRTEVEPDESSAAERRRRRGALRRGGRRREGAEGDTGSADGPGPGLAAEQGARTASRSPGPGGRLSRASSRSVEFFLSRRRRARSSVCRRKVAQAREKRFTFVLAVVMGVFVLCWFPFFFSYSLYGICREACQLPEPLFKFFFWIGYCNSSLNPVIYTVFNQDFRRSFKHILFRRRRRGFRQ
T1 sequence (P19328 whole entry): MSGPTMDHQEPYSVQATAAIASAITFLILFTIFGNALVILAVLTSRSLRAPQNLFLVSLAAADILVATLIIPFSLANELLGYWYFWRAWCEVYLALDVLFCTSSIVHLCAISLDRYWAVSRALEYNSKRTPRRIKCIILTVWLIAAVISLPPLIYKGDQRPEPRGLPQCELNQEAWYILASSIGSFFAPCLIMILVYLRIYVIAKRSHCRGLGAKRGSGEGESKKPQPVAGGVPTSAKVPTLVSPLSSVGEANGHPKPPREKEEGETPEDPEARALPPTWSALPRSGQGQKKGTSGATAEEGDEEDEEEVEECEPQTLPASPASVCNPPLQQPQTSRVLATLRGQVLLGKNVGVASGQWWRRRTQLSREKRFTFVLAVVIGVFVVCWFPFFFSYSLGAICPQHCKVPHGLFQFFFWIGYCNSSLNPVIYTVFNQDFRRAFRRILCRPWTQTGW
T1 sequence (P22909 whole entry): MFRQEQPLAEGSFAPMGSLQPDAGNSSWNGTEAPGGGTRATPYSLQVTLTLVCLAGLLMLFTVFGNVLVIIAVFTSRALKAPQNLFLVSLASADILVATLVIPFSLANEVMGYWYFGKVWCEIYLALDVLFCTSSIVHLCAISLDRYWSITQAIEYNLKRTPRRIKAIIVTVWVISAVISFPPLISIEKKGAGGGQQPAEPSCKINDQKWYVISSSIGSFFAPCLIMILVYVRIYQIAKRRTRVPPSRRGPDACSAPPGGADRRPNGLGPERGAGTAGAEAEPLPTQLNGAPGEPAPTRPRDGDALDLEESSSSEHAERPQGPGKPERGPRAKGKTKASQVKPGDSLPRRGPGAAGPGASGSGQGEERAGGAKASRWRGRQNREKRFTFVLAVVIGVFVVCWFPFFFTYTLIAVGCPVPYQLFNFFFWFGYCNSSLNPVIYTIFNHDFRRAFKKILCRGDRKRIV

[3] = target: T2, Adrenergic receptor alpha-1 (Rattus norvegicus, UniProt P15823+P23944+P43140); assay: Ex vivo alpha-1-adrenoceptor blocking activity by antagonism of (-)-norepinephrine -induced contractions of the epididymal portion of isolated rat vas deferens.; format: functional
T2 sequence (P15823 whole entry): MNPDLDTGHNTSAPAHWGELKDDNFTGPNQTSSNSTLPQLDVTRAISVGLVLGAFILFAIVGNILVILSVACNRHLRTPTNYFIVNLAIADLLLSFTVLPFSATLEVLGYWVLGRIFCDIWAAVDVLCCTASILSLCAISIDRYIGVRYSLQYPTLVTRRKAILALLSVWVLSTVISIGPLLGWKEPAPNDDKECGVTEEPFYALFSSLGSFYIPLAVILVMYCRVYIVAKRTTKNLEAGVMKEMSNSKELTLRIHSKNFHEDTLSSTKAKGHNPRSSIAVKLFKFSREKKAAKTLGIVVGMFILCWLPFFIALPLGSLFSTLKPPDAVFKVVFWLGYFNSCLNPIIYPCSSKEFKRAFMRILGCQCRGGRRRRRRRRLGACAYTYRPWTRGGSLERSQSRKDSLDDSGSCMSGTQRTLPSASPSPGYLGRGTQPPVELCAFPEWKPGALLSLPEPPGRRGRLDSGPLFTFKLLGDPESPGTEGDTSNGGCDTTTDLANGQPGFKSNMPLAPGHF
T2 sequence (P23944 whole entry): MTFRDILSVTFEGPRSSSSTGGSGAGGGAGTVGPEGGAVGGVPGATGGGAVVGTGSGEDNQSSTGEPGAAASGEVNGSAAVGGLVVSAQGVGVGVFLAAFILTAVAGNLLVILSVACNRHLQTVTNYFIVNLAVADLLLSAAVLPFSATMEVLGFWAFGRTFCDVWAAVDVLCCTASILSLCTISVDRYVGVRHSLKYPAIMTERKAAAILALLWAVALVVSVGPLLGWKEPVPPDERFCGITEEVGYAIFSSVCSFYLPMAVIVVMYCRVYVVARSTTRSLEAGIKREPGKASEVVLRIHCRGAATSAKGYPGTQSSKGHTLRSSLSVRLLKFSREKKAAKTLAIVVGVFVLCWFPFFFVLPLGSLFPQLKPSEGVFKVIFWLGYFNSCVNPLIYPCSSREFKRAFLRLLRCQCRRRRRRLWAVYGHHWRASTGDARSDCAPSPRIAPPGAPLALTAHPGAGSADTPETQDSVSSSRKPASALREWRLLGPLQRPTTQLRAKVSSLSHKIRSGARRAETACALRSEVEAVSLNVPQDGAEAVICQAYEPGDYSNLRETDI
T2 sequence (P43140 whole entry): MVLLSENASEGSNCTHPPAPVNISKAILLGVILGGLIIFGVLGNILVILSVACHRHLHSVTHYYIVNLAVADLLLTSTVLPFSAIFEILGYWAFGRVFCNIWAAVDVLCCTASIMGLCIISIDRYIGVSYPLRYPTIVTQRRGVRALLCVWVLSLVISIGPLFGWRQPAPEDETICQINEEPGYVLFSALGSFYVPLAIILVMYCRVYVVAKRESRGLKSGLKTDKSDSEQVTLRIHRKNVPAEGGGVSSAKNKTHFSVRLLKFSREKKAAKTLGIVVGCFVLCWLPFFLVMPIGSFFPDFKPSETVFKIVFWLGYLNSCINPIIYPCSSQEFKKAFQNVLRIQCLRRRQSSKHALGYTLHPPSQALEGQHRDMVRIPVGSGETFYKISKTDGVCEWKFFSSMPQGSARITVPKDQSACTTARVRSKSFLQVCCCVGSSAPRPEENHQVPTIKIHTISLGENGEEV

[4] = target: T1, Adrenergic receptor alpha-2; assay: Tested for the alpha-2-adrenoceptor blocking activity by antagonism of clonidine-induced depression of the twitch responses of the field-stimulated prostatic portion of isolated rat vas deferens; inactive uM; format: functional
[5] = target: T1, Adrenergic receptor alpha-2; assay: Tested for the alpha-2-adrenoceptor blocking activity by antagonism of clonidine-induced depression of the twitch responses of the field-stimulated prostatic portion of isolated rat vas deferens; at concentration 30 uM; format: functional
[6] = target: T1, Adrenergic receptor alpha-2; assay: Tested for the alpha-2-adrenoceptor blocking activity by antagonism of clonidine-induced depression of the twitch responses of the field-stimulated prostatic portion of isolated rat vas deferens (inactive up to 30 uM); format: functional, tissue-based

| Ratio [1] | pA2 [2] | pA2 [3] | pA2 [4] | pA2 [5] | pA2 [6] | SMILES |
| --- | --- | --- | --- | --- | --- | --- |
| > 14000 | – | 8.67 | < 4.52 | – | – | COc1ccc([C@H]2Oc3ccccc3O[C@@H]2CNCCOc2c(OC)cccc2OC)cc1 |
| 1000 | – | 7.84 | – | 4.82 | – | COc1cccc(OC)c1OCCNC[C@H]1Oc2ccccc2O[C@@H]1c1ccc(O)cc1 |
| 1000 | – | 8.15 | – | 5.17 | – | COc1cccc(OC)c1OCCNC[C@H]1Oc2ccccc2O[C@@H]1c1ccc(Cl)cc1 |
| 73 | – | 7.1 | – | 5.24 | – | COc1cccc(OC)c1OCCNC[C@H]1Oc2ccccc2O[C@H]1c1ccc(C)cc1 |
| 210 | – | 7.09 | – | 4.76 | – | COc1cccc(OC)c1OCCNC[C@H]1Oc2ccccc2O[C@H]1c1ccc(Cl)cc1 |
| > 2000 | – | 7.82 | < 4.52 | – | – | CCc1ccc([C@H]2Oc3ccccc3O[C@@H]2CNCCOc2c(OC)cccc2OC)cc1 |
| 30 | 6.46 | 7.94 | – | – | – | COc1cccc(OC)c1OCCNC[C@H]1Oc2ccccc2O[C@@H]1C |
| 16000 | 4.18 | 8.39 | – | – | – | COc1cccc(OC)c1OCCNC[C@H]1Oc2ccccc2O[C@@H]1c1ccccc1 |

The next lines start with the compound.

| SMILES | Ratio [1] | pA2 [2] | pA2 [3] | pA2 [4] | pA2 [5] | pA2 [6] |
| --- | --- | --- | --- | --- | --- | --- |
| COc1cccc(OC)c1OCCNC[C@H]1Oc2ccccc2O[C@H]1C(C)C | 2 | 5.76 | 5.94 | – | – | – |
| COc1cccc(OC)c1OCCNCC1COc2ccccc2O1 (stereo unspecified) | 740 | 6.39 | 9.26 | – | – | – |
| COc1cccc(OC)c1OCCNC[C@H]1Oc2ccccc2O[C@@H]1C1CCCCC1 | > 40 | – | 6.09 | – | – | < 4.52 |
| COc1cccc(OC)c1OCCNC[C@H]1Oc2ccccc2O[C@@H]1c1ccc(OC(C)=O)cc1 | 2600 | 4.87 | 8.12 | – | – | – |
| CCc1ccc([C@@H]2Oc3ccccc3O[C@@H]2CNCCOc2c(OC)cccc2OC)cc1 | > 500 | – | 7.23 | < 4.52 | – | – |
| COc1cccc(OC)c1OCCNC[C@H]1Oc2ccccc2O[C@H]1C1CCCCC1 | > 50 | – | 6.2 | – | – | < 4.52 |
| COc1cccc(OC)c1OCCNC[C@H]1Oc2ccccc2O[C@@H]1c1ccc(C)cc1 | 21000 | 4.37 | 8.69 | – | – | – |
| COc1cccc(OC)c1OCCNC[C@H]1Oc2ccccc2O[C@H]1C | 630 | 5.7 | 8.5 | – | – | – |
| COc1cccc(OC)c1OCCNC[C@H]1Oc2ccccc2O[C@@H]1C(C)C | 4 | 5.94 | 6.57 | – | – | – |
